Data set [1] is described as follows: Cumulative drug release from casein-based silica dual drug-loaded composite microcapsule. Type of data set: physicochemical. As to conditions: after 40 h; casein-based SiO2 dual-loaded microcapsules; drug A ibuprofen on outer wall of capsule, drug B aspirin in core of capsule. The text has this:
(§1) The samples used in Table 1 were the casein-based SiO2 dual-loaded microcapsules obtained by loading the drug A-buprofen on the outer wall of the capsule and the drug B aspirin in the core of the capsule.

A short description of data set [2]: Drug loading efficiency of casein-based silica dual drug-loaded composite microcapsule. It counts as physicochemical. As to conditions: casein-based SiO2 dual-loaded microcapsules; drug A ibuprofen on outer wall of capsule, drug B aspirin in core of capsule.
From the text: as §1

In the case of `CC(C)Cc1ccc(C(C)C(=O)O)cc1` (stereo not shown) [Drug A: ibuprofen, ibuprofen], the “40 h cumulative release rate (%)” value in data set [1] turned out to be 88%. In addition, in data set [2], the “Drug loading efficiency (%)” value is 69%.
As for `CC(=O)Oc1ccccc1C(=O)O` [Drug B: aspirin, aspirin], the “40 h cumulative release rate (%)” value in data set [1] is on record as 60%. Moreover, the “Drug loading efficiency (%)” value in data set [2] is 86%.

Source of the values: patent US10780057B2, “Casein-based silica dual drug-loading composite microcapsule and preparation method therefor” (SHAANXI UNIVERSITY OF SCIENCE & TECHNOLOGY, priority 2016, dated 2020).
